85 compounds from a melting point compilation (Tetko et al.; mined from patent text by program, amines drawn as free bases though some values may be those of a salt) can be followed below.

A value given as a limit tells only on which side of the number the result lay.

`N#CN=C(N)c1cc2c(Oc3ccc(Cl)cc3)cncc2s1` yielded a melting point of 265 to 268 °C. As for `COc1cccc(-c2cccc3c2S(=O)(=O)NC(C2CCCCC2)N3)c1` (stereo not given), the figure is 108 to 115 °C; as for `O=C(O)[C@H]1C[C@@H](O)CN1C(=O)Nc1ccc(Cl)cc1`, 132 to 134 °C; as for `CC(C)C[C@H](NS(=O)(=O)c1ccccc1)C(=O)NC(C)(C)C(=O)c1c(-c2ccccc2)c1=O`, 53 to 59 °C. As for `Cc1ccc(NC(Nc2ccc(C)cc2)Nc2ccc(C)cc2)cc1`, the figure is 130 to 131 °C; as for `CCC(Cl)C(=O)Nc1c(C(=O)CC(=O)Nc2nccs2)cccc1C(F)(F)F` (stereo not given), 170 °C; as for `Cc1ccc2sc3cc(C(=O)O)ccc3c(=O)c2c1`, > 250 °C. Consider `Cc1ccc(Cl)cc1-c1cc(F)cc2c1O[C@@H](CN)C2`, for which the melting point was 148 to 150 °C.

`O=c1c(O)c(-c2nnc(Cc3ccc(F)cc3)o2)oc2ccccc12` returned a melting point of 221 °C. As for `COCn1ccnc1C(O)(c1ccccc1)c1ccccc1C(C)(C)C` (stereo not given), the figure is 149 to 150 °C; as for `Cc1cc(Br)ccc1N=CN(C)SN(C)C=Nc1ccc(Br)cc1C`, 127 to 129 °C. The same measure for `CCOCc1nc2c(N)nc3ccc(NC(=O)C(C)C)cc3c2n1CC(C)(C)O`: 259 to 261 °C; for `O=C(OCc1ccccc1)C1CCCc2[nH]c3ccccc3c21` (stereo not given): 108 to 112 °C. In turn, `CCCc1c(OCc2ccc(OCC(=O)O)cc2)ccc(C(C)=O)c1O` registered a melting point of 140 to 142 °C. As for `Cc1cc(NC(=O)OC(C)(C)C)c([N+](=O)[O-])cc1C#Cc1ccccc1`, the figure is 161 to 164 °C; as for `Cc1nc(C)c(=O)n(CCO)c1C`, 140 to 144 °C. As for `Cc1cccc2c1C=Cc1ccccc1C2O` (stereo not given), the figure is 114 to 116 °C; as for `CCOC(=O)c1ncn2c1[C@@H]1CCCN1C(=S)c1ccccc1-2`, 227 to 229 °C. The same measure for `Cc1cc(N2CC=C(C(N)=O)CC2)c2cccc(-c3ccc(Cl)cc3Cl)c2n1`: 264 to 266 °C; for `O=C(c1cc(-c2ccc(OCc3ccccc3)cc2)c(=O)n2ccc3ccsc3c12)N(CCN1CCOCC1)c1ccccc1`: 168 to 170 °C.

Compound `O=C(Nc1ccc(-n2nc(C(F)(F)F)cc2C(F)(F)F)cc1)c1sccc1Br` returned a melting point of 139 to 140 °C. As to `Cc1ccc(Cc2cnc(NCCCN(C)c3ncc(Br)cn3)[nH]c2=O)cn1`, the melting point is 137 to 140 °C. As for `Cc1c2c(c(C(=O)c3ccc(C(C)C)cc3)c(C)c1NC(=O)CC(C)(C)C)OC(C)(C)C2`, the figure is 194 to 195 °C. The same measure for `CC1(C)N[C@H](Cc2ccc(Br)cc2)[C@@H]2C(=O)N(Cc3ccccc3)C(=O)[C@@H]21` (racemic): 142 to 143 °C; for `COc1cc2c(Nc3cccc(C)c3)ncnc2cc1OCCN1CCOCC1`: 168 to 170 °C; for `CCOC(=O)c1cn(C2CC2)c2cc(F)c(F)cc2c1=O`: 189 to 191 °C. As for `NC(=O)N1CCC(OCCN2CCCCC2)C1` (stereo not given), the figure is 134 to 136 °C; as for `CCCc1nc(C(C)(O)CC)c(C#N)n1Cc1ccc(-c2ccccc2-c2nnn[nH]2)cc1` (stereo not given), 141 to 145 °C; as for `O=c1c2c(n(-c3ccccc3)c3ncccc13)SCC2`, 260 to 261 °C. In the case of `CC(=O)Nc1nc(CCc2ccc(CCl)cc2)c(Cc2ccc(S(C)(=O)=O)cc2)s1`, the melting point was in the range of 202 to 203 °C.

On to `CC(Sc1cnn(C(C)(C)C)c(=O)c1Cl)c1ccc(C(C)(C)C)cc1` (single isomer, unassigned; (+)), for which the melting point was in the range of 102 to 104 °C. With `COc1cc(OC)cc(-c2nc(-c3ccccn3)no2)c1`, the melting point fell in the range of 145 to 148 °C. The same measure for `c1ccc2c(c1)CCN2Nc1ccncc1`: 125 to 126 °C; for `O=C1C(=O)N(c2cccc(C(F)(F)F)c2)C(=O)N1c1ccccc1`: 116 °C; for `Cc1c(NC(=O)CCCC(=O)c2ccc(Cl)cc2)ccc2cc(CN3CCCC3)cnc12`: 173 to 174 °C. As for `Cc1ccc(C(=O)Nc2cn(C3CCCCO3)nc2C(=O)NCCC#N)cn1` (stereo not given), the figure is 118 to 120 °C. Consider `COC(=O)CN(C)C(=O)c1c(OC)ccc2c(Br)c(OC)ccc12`, for which the melting point was in the range of 142 to 144 °C.

The compound `CC(C)OC(=O)c1cnn(-c2ccccn2)c1S(N)(=O)=O` had a melting point of 123 to 124 °C. `CCOc1cc2nc[nH]c(=O)c2cc1OCC` gave a melting point of 255 to 257 °C. `COc1ccc(S(=O)(=O)N2C(=O)C(N)(c3cc(OC)ccc3OC)c3cc(Cl)ccc32)c(OC)c1` (stereo not given) displayed a melting point of 191 °C. `O=C(Cn1cncc(NC(=O)OCc2ccccc2)c1=O)NC(Cc1ccccc1)C(=O)C(F)(F)F` (stereo not given) came in with a melting point of 132 to 134 °C. `Cc1cccc(C(O)CNC(=C[N+](=O)[O-])NCCSCc2cc(C)c(CN(C)C)s2)c1` (stereo not given) came in with a melting point of 88 to 89 °C. The same measure for `COc1ccc(CN(C)CC(=O)Nc2ccc([N+](=O)[O-])cc2)cc1OC`: 120 °C. As for `O=[N+]([O-])c1ccc(-n2cccc2)c(Cl)c1`, the figure is 54 to 55 °C; as for `CCCCn1c(=O)c([N+](=O)[O-])c(NC)c2ccccc21`, 225 to 227 °C; as for `Cc1cccc2[nH]nnc12`, 145 to 146 °C. The same measure for `Cc1oc(C=Cc2ccc(Cl)cc2)nc1CCl`: 121 to 122 °C. `Cc1ccc(NC(=O)Cc2ccccc2C(=O)O)cc1/C=C/c1nc(C(C)C)cs1` gave a melting point of 181 to 183 °C. The same measure for `Cc1cc(OCc2ccccc2)c2cc(C(=O)O)[nH]c2c1`: 178 to 180 °C; for `CC(c1ccncc1F)C(O)(Cn1cncn1)c1ccc(F)cc1F` (stereo not given): 188 to 189 °C; for `COc1ccc2oc(Cc3cccc(F)c3)c(CC#N)c2c1`: 67 °C. The same measure for `CC(C)CN1CCc2ccc(C(=O)CCC(=O)N3CCC(c4ccc(Cl)cc4)CC3)cc2CC1`: 137 to 138 °C; for `CCOC(=O)c1c(CN(CC)CC)nc2sc3c(c2c1-c1ccc(OC)c(OC)c1)CCN(C(=O)c1ccc(Cl)cc1)C3`: 96 to 98 °C. As for `COc1cc2[nH]cc(C(=O)C(Cl)(Cl)Cl)c2cc1Br`, the figure is 185 to 190 °C; as for `O=[N+]([O-])c1ccc(Nc2ccc(C(F)(F)C(F)(F)C(F)(F)C(F)(F)C(F)(F)C(F)(F)F)cc2)c([N+](=O)[O-])c1`, 145 to 146 °C; as for `Cc1nn(C2(F)C=CC([N+](=O)[O-])=CC2)c(=O)n1C(F)F` (stereo not given), 82 to 83 °C. Compound `CCOC(=O)C(=O)N(CCBr)N=Cc1ccccc1` gave a melting point of 56 to 57 °C.

With `CCC(c1ccc(NC(=O)Cc2ccccc2C)c([N+](=O)[O-])c1)n1ccnc1` (stereo not given), the melting point worked out at 122 °C. `COc1ccc(-c2nc(N3CCOCC3)sc2-c2ccc(OC)cc2)cc1`: the melting point lay in the range of 133 to 135 °C. As to `NS(=O)(=O)c1ccc(-c2cnn(Cc3ccccc3)c(=O)c2-c2ccc(F)cc2)cc1`, the melting point was in the range of 185 to 189 °C.

For the compound `CSc1ccc(C(=O)CCC#N)cc1`, the melting point is 122 to 124 °C. As for `CCCCN(C(C)=O)C1NC(=O)N(c2cccc(C(F)(F)F)c2)C(=O)N1`, the melting point was 146 to 148 °C. The same measure for `COc1ccc2[nH]c(SCc3ncc(F)c(N4CCOCC4)c3C)nc2c1`: 84 to 86 °C; for `CCCSc1cc(C(=O)CCC(=O)c2cc(OC)c(OC)c(OC)c2)cc(OC)c1OCc1ccccc1`: 114 to 115 °C; for `CCCCN(CCCC)c1ccc(C=Cc2ccc(C=CC3=C(C#N)C(=C(C#N)C#N)OC3(C)C)s2)c(O[Si](c2ccccc2)(c2ccccc2)C(C)(C)C)c1`: 218 to 219 °C. `O=C(O)CCC(=O)c1ccc(Br)s1` returned a melting point of 141 to 143 °C. As for `COc1ccc(-c2csc(Nc3cc4ccccc4cn3)n2)cc1`, the figure is 224 to 228 °C; as for `CON1C(=O)[C@@H](NC(=O)OC(C)(C)C)[C@@H]1C1CCCCC1` (relative stereo), 110 to 112 °C; as for `Nc1ccccc1C(=O)Nc1ccc(Br)c(C(F)(F)F)c1`, 142 to 144 °C.

Turning to `CCCCCCCCCCOc1cc(OCCCCCCCCCC)cc(C(=O)N(CC(=O)O)CC(=O)O)c1`, the melting point lay within 81 to 84 °C.

The compound `CS(=O)(=O)c1ccc(-n2nc(C(F)(F)F)cc2-c2nc3cc(F)ccc3[nH]2)cc1` gave a melting point of 278 to 280 °C. As for `COc1nsc(N[C@@H](CC(C)C)C(=O)N2CCC[C@H]2C(=O)O)n1`, the figure is 89 to 92 °C; as for `O=C1CCC(Cn2c(=O)[nH]c3ncc(-c4ccc(O)cc4)nc32)N1` (stereo not given), 338 to 340 °C; as for `CCCOc1ccccc1-c1nc2nc(N(C)C)nnc2c(=O)[nH]1`, 258 to 259 °C. As for `CCCc1nc2c(N)nc3cc(OCc4c(C)noc4C)ccc3c2s1`, the figure is 178 to 180 °C; as for `COc1cc2c(cc1OC)CN(c1c(C)c(C)c3c(c1C)C(c1ccccc1)C(C)(C)O3)C2` (stereo not given), 154 to 157 °C. As for `NC1=C2C=NN=C2N(c2ccc(Cl)c(Cl)c2)CN1c1ccccc1`, the figure is 306 to 307 °C; as for `CCc1c(OC)c(C)c(OC)c2c1C(=O)N(CSc1nnnn1-c1ccccc1)S2(=O)=O`, 44 to 46 °C; as for `N#CCOC(=O)c1cc(SCc2ccccc2)c(Cc2ccccc2)c(S(N)(=O)=O)c1`, 190 to 192 °C.

Compound `CN1C(=O)CC(C(=O)Nc2ccc(F)cc2)C(=O)c2cc(F)ccc21` (stereo not given) yielded a melting point of 180 to 182 °C.

Regarding `COC(=O)C(=O)c1ccc(OCCCCOc2ccccc2)cc1`, the melting point was 57 to 59 °C. As for `CCCc1nc2c(N)nc3cc(-c4ccccc4)ccc3c2n1CCCON=C(C)C`, the figure is 164 to 165 °C; as for `CC1(C)OC(=O)c2ccc(C(c3c(F)cc([N+](=O)[O-])cc3F)n3cncn3)cc21` (stereo not given), 163 to 164 °C.

Turning to `O=C(O)C(=O)c1ccc(OCC(=O)c2ccc3ccccc3c2)cc1`, the melting point is 167 to 170 °C.

As to `C=C(C)C(=O)OCCCOc1ccc(-c2cc(OC(=O)C(=C)C)cc(-c3ccc(OCCOC(=O)C(=C)C)cc3)c2)cc1F`, the melting point is 70 °C.
